The assay concerns the target T1, cereblon (CRBN)—DNA damage protein 1 (DDB1) complex (Homo sapiens, UniProt Q96SW2).
T1 construct: encoding amino acid residues 1 to 442 (Uniprot Q96SW2); hexahistidine (N); thrombin cleavage site (N); made in house; host or cells: Sf9 insect cells (baculovirus co-infection)
The assay is described as follows: Cereblon HTRF binding assay. The text has this: The synthesized sequence was designed to encode an N-terminal hexahistidine tag, a thrombin cleavage site, an AviTag™ and a tobacco etch virus protease (TEV) cleavage site followed by the CBRN sequence. The resulting protein sequence is listed below.
The synthesized sequence was designed to encode an N-terminal hexahistidine tag, a tobacco etch virus protease (TEV) cleavage site followed by the DDB1 sequence. […] The linker amino acid residues are underlined and shown in italics.
Baculovirus production of CBRN and DDB1: Recombinant bacmid and P2 virus of CBRN and DDB1 was generated according to the Bac-to-Bac Baculovirus Expression System manual (ThermoFisher Scientific).
Protein Purification: Protein purification was initiated by thawing cells (resuspended in Lysis buffer) at r.t. Once thawed, NaCl was added to a final concentration of 200 mM, followed by 0.01 μL/mL Benzonase™ and the lysate was incubated with slow stirring for 20 minutes. After the freeze-thaw lysis, the whole cell lysate was centrifuged at 48 000 g for 45 minutes and all following purification steps were done on ice or in cold-room. Supernatant (cell lysate) was mixed with 1 mL/50 mL lysate Ni Sepharose™ 6 Fast Flow (Cytiva) pre-equilibrated with Wash buffer (50 mM Tris-Cl pH 8, 20 mM Imidazole, 500 mM NaCl, 10% Glycerol, 1 mM TCEP) and incubated with slow stirring for 1 h. The mix was loaded in a 70 mL open gravity flow column, washed with 10 bed volumes of Wash buffer, and stepwise eluted with 300 mM imidazole in Wash buffer. […] After biotinylation, the CBRN/DDB1 complex was purified by Size Exclusion Chromatography on a HiLoad™ 26/60 Superdex™ 200 column equilibrated in SEC buffer (50 mM HEPES pH 7.5, 200 mM NaCl, 5% glycerol, 1 mM TCEP) before flash-freezing in liquid nitrogen and storage at −80° C.
The assay mixture in a total volume of 4 μL consists of 50 mM Tris-HCl at pH 7.5, 100 mM NaCl, 0.01% Pluronic F127, 1 mM TCEP, 500 μM EDTA, 0.2 nM CRBN-DDB1, 0.2 nM terbium cryptate labeled streptavidin, and 2 nM Cyanine 5-labeled lenalidomide as the probe. […] Reagents were dispensed into the 384-well assay microplate using a Certus Flex liquid dispenser. After incubation for 2 h at r.t., the assay plates were read on a PHERAstar FSX plate reader (BMG Labtech) in the HTRF mode. The raw data from PHERAstar was directly imported into Genedata Screener for analysis. […] The ratio was normalized to positive and negative controls on the same plates to calculate percent inhibition: I %=(I−NC)/(PC−NC), where I are readings from the compound treated well, NC and PC are average readings from negative control wells and positive control wells, respectively. IC50 values were obtained by fitting the I % vs. compound concentration [I] to I %=S0+(SInf−S0)/(1+((IC50/[I])^n)), where S0 is the fitted activity level at zero concentration of test compound, SInf is the fitted activity level at […] concentration of test compound, and n is the hill coefficient of the curve.
The IC50 values reported below are the calculated mean result of one or more experiments.

The values that follow come from patent US20230374007A1, “COMPOUNDS AND THEIR USE IN TREATING CANCER” (AstraZeneca AB, priority 2020, published 2023).

Molecules are shown by their SMILES.

T1 sequence (Q96SW2 with tags, fused parts or gaps): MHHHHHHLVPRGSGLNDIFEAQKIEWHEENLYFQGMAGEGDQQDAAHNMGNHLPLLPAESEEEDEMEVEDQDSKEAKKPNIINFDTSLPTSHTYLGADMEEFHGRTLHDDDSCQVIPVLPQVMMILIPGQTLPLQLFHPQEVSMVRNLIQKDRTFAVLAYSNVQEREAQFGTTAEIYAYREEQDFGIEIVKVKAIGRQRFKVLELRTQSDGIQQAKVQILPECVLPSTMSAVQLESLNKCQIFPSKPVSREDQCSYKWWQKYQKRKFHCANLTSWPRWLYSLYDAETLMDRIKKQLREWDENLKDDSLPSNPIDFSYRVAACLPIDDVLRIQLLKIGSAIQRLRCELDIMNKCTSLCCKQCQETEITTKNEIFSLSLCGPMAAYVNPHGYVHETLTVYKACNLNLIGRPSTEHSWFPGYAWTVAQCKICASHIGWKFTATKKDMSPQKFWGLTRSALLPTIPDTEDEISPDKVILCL

In general, IC50 refers to the concentration needed to halve the response being measured. Higher therefore signals weaker potency. For the compound `O=C1CCN(c2ccc3ccoc3c2)C(=O)N1` [Example 1, 1-(Benzofuran-6-yl)dihydropyrimidine-2,4 (1H,3H)-dione], the IC50 was 2100 nM.

The compound `O=C1CCN(c2cccc3ncsc23)C(=O)N1` [Example 2, 1-(Benzo[d]thiazol-7-yl)dihydropyrimidine-2,4 (1H,3H)-dione] had an IC50 of 2000 nM.

In turn, `O=C1CCN(c2ccc3ccnn3c2)C(=O)N1` [Example 3, 1-(Pyrazolo[1,5-a]pyridin-6-yl)dihydropyrimidine-2,4 (1H,3H)-dione] yielded an IC50 of 3280 nM.

The compound `O=C1CCN(c2cccc3ncoc23)C(=O)N1` [Example 4, 1-(Benzo[d]oxazol-7-yl)dihydropyrimidine-2,4 (1H,3H)-dione] returned an IC50 of 3880 nM.

`O=C1CCN(c2ccc3ncoc3c2)C(=O)N1` [Example 5, 1-(Benzo[d]oxazol-6-yl)dihydropyrimidine-2,4 (1H,3H)-dione] returned an IC50 of 6740 nM.

`Cn1ncc2cc(N3CCC(=O)NC3=O)ccc21` [Example 6, 1-(1-Methyl-1H-indazol-5-yl)dihydropyrimidine-2,4 (1H,3H)-dione]: the IC50 came out at 3930 nM.

As to `O=C1CCN(c2ccn3ccnc3c2)C(=O)N1` [Example 7, 1-(Imidazo[1,2-a]pyridin-7-yl)dihydropyrimidine-2,4 (1H,3H)-dione], the IC50 is 3000 nM.

As to `Cn1cc2cc(N3CCC(=O)NC3=O)ccc2n1` [Example 8, 1-(2-Methyl-2H-indazol-5-yl)dihydropyrimidine-2,4 (1H,3H)-dione], the IC50 was 4570 nM.

The compound `O=C1CCN(c2ccc3ncsc3c2)C(=O)N1` [Example 9, 1-(Benzo[d]thiazol-6-yl)dihydropyrimidine-2,4 (1H,3H)-dione] gave an IC50 of 5350 nM.

Turning to `CN1Cc2ccc(N3CCC(=O)NC3=O)cc2C1=O` [Example 10, 1-(2-Methyl-3-oxoisoindolin-5-yl)dihydropyrimidine-2,4 (1H,3H)-dione], the IC50 stood at 7880 nM.

In turn, `Cn1ccc2cc(N3CCC(=O)NC3=O)cnc21` [Example 11, 1-(1-Methyl-1H-pyrrolo[2,3-b]pyridin-5-yl)dihydropyrimidine-2,4 (1H,3H)-dione] came in with an IC50 of 26900 nM.

With `Cn1c(=O)oc2cc(N3CCC(=O)NC3=O)ccc21` [Example 12, 1-(3-Methyl-2-oxo-2,3-dihydrobenzo[d]oxazol-6-yl)dihydropyrimidine-2,4 (1H,3H)-dione], the IC50 turned out to be 11000 nM.

Regarding `O=c1ccn(-c2ccc3cc[nH]c3c2)c(=O)[nH]1` [Example 13, 1-(1H-Indol-6-yl)pyrimidine-2,4 (1H,3H)-dione], the IC50 amounted to 765 nM.

As for `O=c1[nH]c(=O)n(-c2ccc3cc[nH]c3c2)cc1F` [Example 14, 5-Fluoro-1-(1H-indol-6-yl)pyrimidine-2,4 (1H,3H)-dione], the IC50 was found to be 516 nM.

In turn, `Cc1cn(-c2ccc3cc[nH]c3c2)c(=O)[nH]c1=O` [Example 15, 1-(1H-Indol-6-yl)-5-methylpyrimidine-2,4 (1H,3H)-dione] had an IC50 of 10600 nM.

In turn, `COc1cc(N2CCC(=O)NC2=O)c2ccn(C)c2c1` [Example 16, 1-(6-Methoxy-1-methyl-1H-indol-4-yl)dihydropyrimidine-2,4 (1H,3H)-dione] showed an IC50 of 211 nM.

The compound `O=C1CCN(c2cccc3[nH]ccc23)C(=O)N1` [Example 18, 1-(1H-Indol-4-yl)dihydropyrimidine-2,4 (1H,3H)-dione] came in with an IC50 of 347 nM.

With `COCc1cc(N2CCC(=O)NC2=O)c2ccn(C)c2c1` [Example 19, 1-(6-(Methoxymethyl)-1-methyl-1H-indol-4-yl)dihydropyrimidine-2,4 (1H,3H)-dione], the IC50 amounted to 430 nM.

Turning to `O=C1CCN(c2ccc3c(c2)CCN3)C(=O)N1` [Example 20, 1-(Indolin-5-yl)dihydropyrimidine-2,4 (1H,3H)-dione], the IC50 is 357 nM.

In turn, `CN1CCc2cc(N3CCC(=O)NC3=O)ccc21` [Example 21, 1-(1-Methylindolin-5-yl)dihydropyrimidine-2,4 (1H,3H)-dione] showed an IC50 of 784 nM.

Regarding `O=C1CCN(c2ccc3c(c2)NCC3)C(=O)N1` [Example 22, 1-(Indolin-6-yl)dihydropyrimidine-2,4 (1H,3H)-dione], the concentration for half-maximal inhibition (IC50) came out at 487 nM.

In the case of `CN1CCc2ccc(N3CCC(=O)NC3=O)cc21` [Example 23, 1-(1-Methylindolin-6-yl)dihydropyrimidine-2,4 (1H,3H)-dione], the IC50 was determined as 1060 nM.

`O=C1CCN(c2ccc3c(c2)CNC3)C(=O)N1` [Example 24, 1-(Isoindolin-5-yl)dihydropyrimidine-2,4 (1H,3H)-dione]: the IC50 is 8980 nM.

In turn, `CN1Cc2ccc(N3CCC(=O)NC3=O)cc2C1` [Example 25, 1-(2-Methylisoindolin-5-yl)dihydropyrimidine-2,4 (1H,3H)-dione] came in with an IC50 of 2960 nM.

`O=C1CCN(c2ccc3c(c2)CCCN3)C(=O)N1` [Example 26, 1-(1,2,3,4-Tetrahydroquinolin-6-yl)dihydropyrimidine-2,4 (1H,3H)-dione]: the IC50 stood at 1490 nM.

The compound `CN1CCCc2cc(N3CCC(=O)NC3=O)ccc21` [Example 27, 1-(1-Methyl-1,2,3,4-tetrahydroquinolin-6-yl)dihydropyrimidine-2,4 (1H,3H)-dione] displayed an IC50 of 1040 nM.

`O=C1CCN(c2ccc3c(c2)CNCC3)C(=O)N1` [Example 28, 1-(1,2,3,4-Tetrahydroisoquinolin-7-yl)dihydropyrimidine-2,4 (1H,3H)-dione] came in with an IC50 of 17000 nM.

As for `CN1CCc2ccc(N3CCC(=O)NC3=O)cc2C1` [Example 29, 1-(2-Methyl-1,2,3,4-tetrahydroisoquinolin-7-yl)dihydropyrimidine-2,4 (1H,3H)-dione], the IC50 was found to be 8010 nM.

`O=C1CCN(c2ccc3c(c2)CCNC3)C(=O)N1` [Example 30, 1-(1,2,3,4-Tetrahydroisoquinolin-6-yl)dihydropyrimidine-2,4 (1H,3H)-dione] had an IC50 of 8680 nM.

In the case of `CN1CCc2cc(N3CCC(=O)NC3=O)ccc2C1` [Example 31, 1-(2-Methyl-1,2,3,4-tetrahydroisoquinolin-6-yl)dihydropyrimidine-2,4 (1H,3H)-dione], the IC50 came to 4100 nM.

Consider `O=C1CCN(c2ccc3c(c2)NCCC3)C(=O)N1` [Example 32, 1-(1,2,3,4-Tetrahydroquinolin-7-yl)dihydropyrimidine-2,4 (1H,3H)-dione], for which the concentration for half-maximal inhibition (IC50) came out at 1230 nM.

Consider `O=C1CCN(c2cccc3[nH]ncc23)C(=O)N1` [Example 34, 1-(1H-Indazol-4-yl)dihydropyrimidine-2,4 (1H,3H)-dione], for which the IC50 came to 627 nM.

`O=C1CCN(c2ccc3[nH]ncc3c2)C(=O)N1` [Example 35, 1-(1H-Indazol-5-yl)dihydropyrimidine-2,4 (1H,3H)-dione] came in with an IC50 of 2970 nM.

For the compound `O=C1CCN(c2cnc3cnoc3c2)C(=O)N1` [Example 36, 1-(Isoxazolo[4,5-b]pyridin-6-yl)dihydropyrimidine-2,4 (1H,3H)-dione], the IC50 is 115 nM.

Take `O=C1CCN(c2cnc3ccoc3c2)C(=O)N1` [Example 37, 1-(Furo[3,2-b]pyridin-6-yl)dihydropyrimidine-2,4 (1H,3H)-dione]: the IC50 turned out to be 3100 nM.

Turning to `O=C1CCN(c2ccc3nn[nH]c3c2)C(=O)N1` [Example 38, 1-(1H-Benzo[d][1,2,3]triazol-6-yl)dihydropyrimidine-2,4 (1H,3H)-dione], the IC50 was 566 nM.
